Experimental findings from patent publication US10434103B2, “Crystal of 3,5-disubstituted benzene alkynyl compound” (TAIHO PHARMACEUTICAL CO., LTD., priority 2015, dated 2019) are described below.

One series can be described thus: in vivo. To be noted: BALB/c, mouse, plasma, po, 50 mg/kg.
Series [1] in a line: Differential scanning calorimetry (DSC), phase transition on heating. The note with it: when the temperature was increased (10° C./min). (In DSC, transitions show as peaks or steps in heat flow.)
Description: DSC measurement was performed under the following conditions.
Device: TA Instruments Q1000
Sample Container: made of aluminum
Temperature Increase Rate: 10° C./min
Atmospheric Gas: Nitrogen
Nitrogen Gas Flow: 50 ml/min
The nature of series [2]: Oral absorbability: plasma concentration of compound 1 after oral administration to mice. To be noted: BALB/c mice, 50 mg/kg, suspension in 0.5% HPMC aqueous solution, plasma sampled 0.5-6 hours.
Description: (§1) After 0.5, 1, 2, 4, and 6 hours from administration, blood of each mouse was collected from the retro-orbital sinus, and the concentration of compound 1 in plasma was measured.

SMILES strings stand for the structures.

Description for in vivo: as §1

A word on the AUC: it is the area under the concentration-time curve, a measure of exposure. High values mean more exposure, low ones less exposure. In turn, `C=CC(=O)N1CC[C@H](n2nc(C#Cc3cc(OC)cc(OC)c3)c3c(N)ncnc32)C1` [Crystal I, (S)-1-(3-(4-amino-3-((3,5-dimethoxyphenyl)ethynyl)-1H-pyrazolo[3,4-d]pyrimidin-1-yl)-1-pyrrolidinyl)-2-propen-1-one] registered an AUC in the series “in vivo” of 9.82 µM·h. The “peak that suggests a phase transition in DSC measurement” value in series [1] is “did not exhibit a peak that suggests a phase transition”.

`C=CC(=O)N1CC[C@H](n2nc(C#Cc3cc(OC)cc(OC)c3)c3c(N)ncnc32)C1` [Crystal II, (S)-1-(3-(4-amino-3-((3,5-dimethoxyphenyl)ethynyl)-1H-pyrazolo[3,4-d]pyrimidin-1-yl)-1-pyrrolidinyl)-2-propen-1-one] displayed an AUC in series [2] of 4.99 µM·h. Also, the “peak that suggests a phase transition in DSC measurement” value in series [1] was “did not exhibit a peak that suggests a phase transition”.
